Results published in publication PMC5573416, “Inhibiting mycobacterial tryptophan synthase by targeting the inter-subunit interface” (Scientific Reports, 2017).

Tests used:
[1] = target: T1, Mtb tryptophan synthase (TrpA and TrpB-F188L) (Mycobacterium tuberculosis, UniProt P9WFX9+P9WFY1, F199L); assay type: biochemical
[2] = target: T1, Mtb tryptophan synthase (TrpA and TrpB-F188L); assay type: biochemical; remark: listed apart in the source

CNS(=O)(=O)c1ccc2c(c1)CCN2C(=O)c1ccccc1F [Compound 2]
L-tryptophan synthesis in presence of inhibitor (TLC) [1]: relatively the same amount of tryptophan

CNS(=O)(=O)c1ccc2c(c1)CCN2C(=O)c1ccc(C)s1 [Compound 3]
L-tryptophan produced in presence of inhibitor (GF-HPLC) [2]: L-tryptophan was produced
